Measurements: ChEMBL document CHEMBL5390258, “Recent Progress and Prospects of Small Molecules for NLRP3 Inflammasome Inhibition” (J Med Chem, 2023)
pEC50, pIC50: −log10 of the molar value. One block for each compound: values may come before it.

Columns and labels:
[1] = target: T1, NACHT, LRR and PYD domains-containing protein 3 (Mus musculus, UniProt Q8R4B8); test: Inhibition of NLRP3 in LPS induced mouse BV-2 cells assessed as reduction in IL-1beta production pretreated for 30 mins followed by nigericin addition measured after 2 hrs by ELISA assay; type: cell-based
[2] = target: T1, NACHT, LRR and PYD domains-containing protein 3; test: Inhibition of NLRP3 in mouse J774A.1 cells assessed as reduction of IL-1beta production; type: cell-based, J774.A1
[3] = tested on: THP-1; test: Induction of pyroptosis in human THP-1 cells by AlphaLisa assay; type: functional, cell-based
[4] = target: T1, NACHT, LRR and PYD domains-containing protein 3; test: Inhibition of NLRP3 in mouse BMDM cells assessed as reduction in IL-1beta production preincubated for 30 mins followed by ATP addition measured after 45 mins by ELISA assay; type: cell-based
[5] = tested on: THP-1; test: Antiinflammatory activity against PMA-differentiated human THP-1 cells assessed as reduction of IL-1beta production measured after 2 hrs; type: functional, cell-based; details: THP-1, 2 h
[6] = target: T2, NACHT, LRR and PYD domains-containing protein 3 (Homo sapiens, UniProt Q96P20); test: Inhibition of NLRP3 in human THP-1 cells assessed as reduction in IL-1beta production measured after 3 hrs; type: cell-based
[7] = target: T2, NACHT, LRR and PYD domains-containing protein 3; test: Inhibition of NLRP3 in human Whole blood cell assessed as reduction in IL-1beta production incubated for overnight in presence of ATP by ELISA; type: tissue-based
[8] = target: T2, NACHT, LRR and PYD domains-containing protein 3; test: Inhibition of NLRP3 in LPS induced human THP-1 cells assessed as reduction in IL-1beta production preincubated for 3 hrs followed by nigericin addition measured after 1 hrs by resazurin staining based assay; type: cell-based
[9] = target: T2, NACHT, LRR and PYD domains-containing protein 3; test: Inhibition of NLRP3 in human PBMC cells assessed as reduction in TNF alpha level preincubated for 30 mins followed by LPS addition measured after 6 hrs; type: cell-based
[10] = target: T2, NACHT, LRR and PYD domains-containing protein 3; test: Inhibition of NLRP3 in human THP-1 cells assessed as reduction in IL-1beta production; type: cell-based
[11] = target: T2, NACHT, LRR and PYD domains-containing protein 3; test: Inhibition of NLRP3 in human PBMC cells assessed as reduction in IL-1beta production preincubated for 30 mins followed by LPS addition measured after 6 hrs; type: cell-based
[12] = target: T2, NACHT, LRR and PYD domains-containing protein 3; test: Inhibition of NLRP3 in human MDM cells assessed as reduction in IL-1beta production measured after 3 hrs by AlphaLISA assay; type: cell-based
[13] = target: T1, NACHT, LRR and PYD domains-containing protein 3; test: Inhibition of NLRP3 in mouse BMDM cells assessed as reduction in IL-1beta production; type: cell-based
[14] = target: T1, NACHT, LRR and PYD domains-containing protein 3; test: Inhibition of NLRP3 in mouse BMDM cells assessed as reduction in IL-1beta production measured after 3 hrs; type: cell-based
[15] = target: T2, NACHT, LRR and PYD domains-containing protein 3; test: Inhibition of NLRP3 in human PBMC cells assessed as reduction in Il-1beta production preincubated for 0.5 hrs followed by LPS treatment for […] and further addition of ATP measured after 45 mins; type: cell-based
[16] = target: T2, NACHT, LRR and PYD domains-containing protein 3; test: Inhibition of NLRP3 in human PBMC cells assessed as reduction in TNFalpha level preincubated for 0.5 hrs followed by LPS treatment for […] and further addition of ATP measured after 45 mins; type: cell-based
[17] = target: T2, NACHT, LRR and PYD domains-containing protein 3; test: Inhibition of NLRP3 in human THP-1 cells assessed as reduction in IL-1beta production measured after 3 hrs by AlphaLISA assay; type: cell-based
[18] = target: T2, NACHT, LRR and PYD domains-containing protein 3; test: Inhibition of NLRP3 in LPS induced human Whole blood cell assessed as reduction in IL-1beta production preincubated for 3 hrs followed by nigericin measured after 1 hrs by resazurin staining based assay; type: tissue-based
[19] = target: T1, NACHT, LRR and PYD domains-containing protein 3; test: Inhibition of NLRP3 in mouse BMDM assessed as reduction in IL-1beta production preincubated for 3 hrs followed by ATP measured after 45 mins by ELISA assay; type: cell-based
[20] = target: T2, NACHT, LRR and PYD domains-containing protein 3; test: Inhibition of NLR3 in human Whole blood cell assessed as reduction in IL-1beta production preincubated for 0.5 hrs followed by LPS treatement for […] and further addition of ATP measured after 45 mins by ELISA assay; type: tissue-based
[21] = target: T1, NACHT, LRR and PYD domains-containing protein 3; test: Inhibition of NLRP3 in LPS induced mouse BMDM cells assessed as reduction in IL-1beta production measured after 30 mins by ELISA assay; type: cell-based
[22] = target: T2, NACHT, LRR and PYD domains-containing protein 3; test: Inhibition of NLRP3 in human THP-1 cells assessed as reduction in IL-1beta production pre incubated for 3 hrs followed by nigericin addition measured after 1 hrs by resazurin staining based assay; type: cell-based
[23] = Inhibition of NLRP3 in LPS induced PBMC (unknown origin) assessed as reduction in IL-1beta production preincubated 0.5 hrs followed by nigericin addition measured after 1 hrs by ELISA assay; type: cell-based
[24] = target: T2, NACHT, LRR and PYD domains-containing protein 3; test: Inhibition of NLRP3 in human PBMC cells assessed as reduction in Il-1beta production at 0.5 uM relative to control; type: cell-based
[25] = target: T2, NACHT, LRR and PYD domains-containing protein 3; test: Inhibition of NLRP3 in human THP-1 cells assessed as reduction in IL-1beta production measured after 1 hrs by ELISA assay; type: cell-based

T2 sequence (Q96P20 whole entry, the tested form may be a part): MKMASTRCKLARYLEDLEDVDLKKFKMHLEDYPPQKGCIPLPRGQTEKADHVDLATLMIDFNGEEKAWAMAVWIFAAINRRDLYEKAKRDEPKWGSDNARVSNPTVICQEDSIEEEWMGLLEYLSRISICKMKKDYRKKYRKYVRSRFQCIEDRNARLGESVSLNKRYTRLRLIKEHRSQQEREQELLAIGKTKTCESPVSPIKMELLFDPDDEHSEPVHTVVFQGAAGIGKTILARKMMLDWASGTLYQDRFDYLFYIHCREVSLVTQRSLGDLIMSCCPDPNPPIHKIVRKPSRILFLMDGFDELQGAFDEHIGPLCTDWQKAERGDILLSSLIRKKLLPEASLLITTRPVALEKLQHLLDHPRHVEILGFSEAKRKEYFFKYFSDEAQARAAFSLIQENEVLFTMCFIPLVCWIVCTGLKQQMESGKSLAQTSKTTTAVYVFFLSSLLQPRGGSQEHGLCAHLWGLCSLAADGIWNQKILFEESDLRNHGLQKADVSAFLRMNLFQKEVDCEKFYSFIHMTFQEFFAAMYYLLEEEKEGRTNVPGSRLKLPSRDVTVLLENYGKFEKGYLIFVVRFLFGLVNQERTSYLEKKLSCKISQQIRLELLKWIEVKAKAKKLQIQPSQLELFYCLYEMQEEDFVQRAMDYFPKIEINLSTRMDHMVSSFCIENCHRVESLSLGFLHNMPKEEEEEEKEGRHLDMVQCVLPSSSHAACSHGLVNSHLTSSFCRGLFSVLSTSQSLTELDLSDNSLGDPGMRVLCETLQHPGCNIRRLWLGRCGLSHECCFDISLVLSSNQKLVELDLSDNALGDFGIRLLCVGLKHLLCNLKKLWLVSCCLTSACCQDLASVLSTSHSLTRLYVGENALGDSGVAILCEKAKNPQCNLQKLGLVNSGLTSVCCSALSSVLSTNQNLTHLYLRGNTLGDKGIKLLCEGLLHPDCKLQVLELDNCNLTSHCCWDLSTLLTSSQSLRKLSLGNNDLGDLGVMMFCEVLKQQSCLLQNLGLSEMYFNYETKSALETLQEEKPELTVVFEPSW
T1 sequence (Q8R4B8 whole entry, the tested form may be a part): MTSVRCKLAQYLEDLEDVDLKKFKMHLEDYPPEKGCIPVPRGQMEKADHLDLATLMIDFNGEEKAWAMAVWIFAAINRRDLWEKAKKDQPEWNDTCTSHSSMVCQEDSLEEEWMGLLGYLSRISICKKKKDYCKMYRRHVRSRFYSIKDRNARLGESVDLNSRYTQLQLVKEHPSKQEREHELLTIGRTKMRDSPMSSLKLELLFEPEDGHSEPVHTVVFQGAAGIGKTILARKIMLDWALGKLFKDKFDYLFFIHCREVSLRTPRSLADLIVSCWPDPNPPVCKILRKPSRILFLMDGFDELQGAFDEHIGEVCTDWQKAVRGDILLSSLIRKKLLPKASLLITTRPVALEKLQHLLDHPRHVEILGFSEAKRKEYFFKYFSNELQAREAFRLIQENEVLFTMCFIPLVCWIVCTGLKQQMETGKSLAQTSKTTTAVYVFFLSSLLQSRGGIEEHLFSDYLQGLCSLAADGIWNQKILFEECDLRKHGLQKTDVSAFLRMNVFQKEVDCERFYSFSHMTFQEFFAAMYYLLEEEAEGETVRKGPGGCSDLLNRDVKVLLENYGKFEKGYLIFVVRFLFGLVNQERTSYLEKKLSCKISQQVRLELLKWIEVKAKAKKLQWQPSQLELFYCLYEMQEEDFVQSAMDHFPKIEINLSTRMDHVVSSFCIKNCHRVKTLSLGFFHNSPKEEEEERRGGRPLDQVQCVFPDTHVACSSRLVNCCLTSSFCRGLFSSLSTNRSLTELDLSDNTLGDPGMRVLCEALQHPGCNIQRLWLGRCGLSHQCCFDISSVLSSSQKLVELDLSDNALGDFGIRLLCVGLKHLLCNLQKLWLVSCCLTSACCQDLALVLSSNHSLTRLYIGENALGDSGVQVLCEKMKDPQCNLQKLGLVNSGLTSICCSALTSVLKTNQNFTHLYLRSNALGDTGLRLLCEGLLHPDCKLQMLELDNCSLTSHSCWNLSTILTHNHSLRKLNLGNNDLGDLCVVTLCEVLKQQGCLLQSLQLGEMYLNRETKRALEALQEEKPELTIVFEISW

pIC50 [3]: 7.56
Structure (SMILES): Cc1cc(Cl)cc(O)c1-c1ccc2oc(N[C@@H]3CCCN4CCC[C@@H]34)nc2n1

pIC50 [5]: 6.70
Structure (SMILES): O=C(Nc1c2c(cc3c1CC3)CCC2)NS(=O)(=O)c1cnn2c1OCCC2

pIC50 [6]: > 7.00
Structure (SMILES): CCc1oc(C(C)C)cc1NC(=O)NS(=O)(=O)C(c1cnn(C)c1)C1CCCN(C)C1 (stereo not given)

pIC50 [7]: > 6.00
Structure (SMILES): O=C(Nc1c(C2CC2)ccc2c1CCC2)NS(=O)(=O)c1cc2c(o1)C1CCN(CC1)C2

pIC50 [8]: ≥ 7.00
Structure (SMILES): O=S1(=O)c2nnc([nH]2)Nc2c(ccc3c2CCC3)-c2ccnc(c2)OCCCN2CCC3(CC1C3)C2

pIC50 [9]: 4.94
Structure (SMILES): CC(C)c1nc2c(C(C)C)nn(CC(=O)Nc3ccc4nncn4c3)c(=O)c2s1

pIC50 [9]: 5.30
Structure (SMILES): CC(C)c1nn(CC(=O)Nc2ccc3nncn3c2)c(=O)c2sc(C3CC3)nc12

pIC50 [2]: 5.81
Structure (SMILES): Cc1ccc(S(=O)(=O)/C=C/C#N)cc1

pIC50 [10]: < 4.52
Structure (SMILES): CC(C)c1cc(F)cc(C(C)C)c1NC(=O)N=[S+](N)([O-])c1ccc2ccccc2c1 (stereo not given)

pIC50 [12]: > 6.00
Structure (SMILES): CC(C)(O)c1ccc2c(c1)[S+]([O-])(NC(=O)Nc1c3c(cc4c1CCC4)CCC3)=NC2=O (stereo not given)

pIC50 [11]: > 7.60 | pIC50 [9]: < 5.00
Structure (SMILES): CC(C)c1nn(CC(=O)N[C@H]2C[C@](C)(O)C2)c(=O)c2ccc(Br)cc12

pIC50 [15]: < 5.00 | pIC50 [16]: < 5.00
Structure (SMILES): CC(C)c1nn(CC(=O)Nc2ccncn2)c(=O)c2cccn12

pIC50 [18]: > 6.00
Structure (SMILES): COc1cc(-c2ccc3c(c2NC(=O)NS(=O)(=O)c2cn(C(C)C)c(=O)cn2)CCC3)ccn1

pIC50 [19]: > 7.00
Structure (SMILES): C[C@@]1(O)CCCc2oc(S(=O)(=O)NC(=O)Nc3c4c(cc5c3CCC5)CCC4)cc21

pIC50 [10]: < 4.52
Structure (SMILES): CC(C)c1cc(F)cc(C(C)C)c1NC(=O)N=[S+](N)([O-])c1ccccc1-c1ccccc1 (stereo not given)

pIC50 [20]: > 6.00
Structure (SMILES): O=C(Nc1c2c(cc3c1CCC3)CCC2)NS(=O)(=O)c1cc2c(o1)C1CCN(CC1)C2

pIC50 [22]: ≥ 7.40
Structure (SMILES): CN(C)Cc1cc(S(=O)(=O)NC(=O)Nc2c3c(cc4c2CCC4)CCC3)nn1C1CC1

pIC50 [21]: 6.05
Structure (SMILES): NS(=O)(=O)c1cccc(/C=C2\SC(=S)N(CC3CCCCC3)C2=O)c1

pIC50 [25]: 5.94
Structure (SMILES): CC(C)c1nn(C2(C(=O)Nc3ncccn3)CC2)c(=O)cc1-c1cc(F)cc(F)c1

The next lines start with the compound.

Structure (SMILES): COC(=O)c1cccc(C(=O)NC2(C(=O)Nc3c4c(cc5c3CCC5)CCC4)CC2)c1
pIC50 [1]: 5.69

Structure (SMILES): O=C(/C=C/S(=O)(=O)c1ccccc1Cl)NCCc1ccccc1
pIC50 [2]: 6.04

Structure (SMILES): CC(C)c1cc(F)cc(C(C)C)c1NC(=O)NS(=O)(=O)c1cc2c(o1)CCCC2(C)O (stereo not given)
pIC50 [4]: > 7.00

Structure (SMILES): CC(C)c1nn(CC(=O)Nc2ccncn2)c(=O)c2cc(I)nn12
pIC50 [11]: > 7.92 | pIC50 [9]: < 5.00

Structure (SMILES): O=C(CBr)C1CCC1
pIC50 [13]: ~5.30

Structure (SMILES): CC1(O)CCCc2oc(S(=O)(=O)NC(=O)Nc3c4c(c(Br)c5c3CCC5)CCC4)cc21 (stereo not given)
pIC50 [14]: > 7.00

Structure (SMILES): CC(C)c1nn(CC(=O)Nc2ccc3nncn3n2)c(=O)cc1Nc1ccccc1
pEC50 [11]: < 4.82

Structure (SMILES): CC(C)c1cc(F)cc2c1CC(=O)NS(=O)(=O)c1ccn(n1)C(C)(C)COc1cc-2ccn1
pIC50 [17]: ≥ 7.00

Structure (SMILES): CS(=O)(=O)NC(=O)Nc1c(-c2ccnc(OC3CCN(Cc4ccccc4)CC3)c2)ccc2c1CCC2
pIC50 [6]: ≥ 6.60

Structure (SMILES): CCC(CC)CN1C(=O)/C(=C/c2ccccc2S(C)(=O)=O)SC1=S
pIC50 [21]: 5.85

Structure (SMILES): Cn1ncc2ccc(S(=O)(=O)NC(=O)Nc3c4c(cc5c3CCC5)CCC4)cc21
pIC50 [8]: > 6.00

Structure (SMILES): CCOC(=O)C(Cn1cc(F)cn1)OC(=O)Nc1c2c(cc3c1CCC3)CCC2 (stereo not given)
pIC50 [23]: > 8.00

Structure (SMILES): C=C1C(=O)[C@@]23C(CC[C@@H]1[C@H]2OC(=O)/C=C/c1ccc(N2CCOCC2)cc1)[C@@]12CO[C@]3(O)[C@@H](O)[C@@H]1C(C)(C)CC[C@@H]2O (stereo not given in full)
inhibition [24]: 2.94%
